Key:
[1] = test system: Tyrosine-protein kinase ABL1 (Homo sapiens), P00519 [T315I]; experiment: Binding affinity to human phosphorylated ABL1 T315I mutant (S229 to K512 residues) expressed in mammalian expression system assessed as residual binding level at 10 uM by Kinomescan method relative to control
[2] = target: Tyrosine-protein kinase ABL1 (Homo sapiens) (UniProt P00519); experiment: Binding affinity to wild-type human non-phosphorylated ABL1 (S229 to K512 residues) expressed in mammalian expression system assessed as residual binding level at 10 uM by Kinomescan method relative to control
[3] = test system: ALK tyrosine kinase receptor (Homo sapiens), Q9UM73 [L1196M]; experiment: Binding affinity to wild-type human partial length ALK L1196M mutant (I1088 to E1409 residues) expressed in mammalian expression system assessed as residual binding level at 10 uM by Kinomescan method relative to control
[4] = target: Cyclin-dependent kinase 11A (Homo sapiens) (UniProt Q9UQ88); experiment: Binding affinity to wild-type human partial length CDC2L2 (D391 to K730 residues) expressed in bacterial expression system assessed as residual binding level at 10 uM by Kinomescan method relative to control
[5] = target: Casein kinase I isoform alpha (Homo sapiens) (UniProt P48729); experiment: Binding affinity to wild-type human partial length CSNK1A1 (M1 to L450 residues) expressed in mammalian expression system assessed as residual binding level at 10 uM by Kinomescan method relative to control
[6] = target: Serine/threonine-protein kinase/endoribonuclease IRE1 (Homo sapiens) (UniProt O75460); experiment: Binding affinity to wild-type human partial length ERN1 (S551 to E852 residues) expressed in mammalian expression system assessed as residual binding level at 10 uM by Kinomescan method relative to control
[7] = target: Tyrosine-protein kinase Fes/Fps (Homo sapiens) (UniProt P07332); experiment: Binding affinity to wild-type human partial length FES (I527 to R822 residues) expressed in bacterial expression system assessed as residual binding level at 10 uM by Kinomescan method relative to control
[8] = test system: Mast/stem cell growth factor receptor Kit (Homo sapiens), P10721 [V559D,T670I]; experiment: Binding affinity to human partial length KIT V559D/T670I double mutant (Y545 to D952 residues) expressed in bacterial expression system assessed as residual binding level at 10 uM by Kinomescan method relative to control
[9] = target: LIM domain kinase 1 (Homo sapiens) (UniProt P53667); experiment: Binding affinity to wild-type human full length LIMK1 (M1 to D647 residues) expressed in bacterial expression system assessed as residual binding level at 10 uM by Kinomescan method relative to control
[10] = target: Microtubule-associated serine/threonine-protein kinase 1 (Homo sapiens) (UniProt Q9Y2H9); experiment: Binding affinity to wild-type human partial length MAST1 (S346 to V730 residues) expressed in mammalian expression system assessed as residual binding level at 10 uM by Kinomescan method relative to control
[11] = target: Serine/threonine-protein kinase 26 (Homo sapiens) (UniProt Q9P289); experiment: Binding affinity to wild-type human full length MST4 (M1 to P416 residues) expressed in mammalian expression system assessed as residual binding level at 10 uM by Kinomescan method relative to control
[12] = target: Serine/threonine-protein kinase Nek11 (Homo sapiens) (UniProt Q8NG66); experiment: Binding affinity to wild-type human partial length NEK11 (M1 to E313 residues) expressed in mammalian expression system assessed as residual binding level at 10 uM by Kinomescan method relative to control
[13] = target: Mitogen-activated protein kinase 12 (Homo sapiens) (UniProt P53778); experiment: Binding affinity to wild-type human full length p38-gamma (M1 to L367 residues) expressed in mammalian expression system assessed as residual binding level at 10 uM by Kinomescan method relative to control
[14] = target: Serine/threonine-protein kinase PAK 5 (Homo sapiens) (UniProt Q9P286); experiment: Binding affinity to wild-type human partial length PAK7 (Y400 to H719 residues) expressed in bacterial expression system assessed as residual binding level at 10 uM by Kinomescan method relative to control
[15] = target: Phosphatidylinositol 4,5-bisphosphate 3-kinase catalytic subunit alpha isoform (Homo sapiens) (UniProt P42336); experiment: Binding affinity to wild-type human partial length PIK3CA (R108 to N1068 residues) expressed in mammalian expression system assessed as residual binding level at 10 uM by Kinomescan method relative to control
[16] = target: Serine/threonine-protein kinase pim-2 (Homo sapiens) (UniProt Q9P1W9); experiment: Binding affinity to wild-type human partial length PIM2 (M1 to E291 residues) expressed in bacterial expression system assessed as residual binding level at 10 uM by Kinomescan method relative to control
[17] = target: cAMP-dependent protein kinase catalytic subunit alpha (Homo sapiens) (UniProt P17612); experiment: Binding affinity to wild-type human partial length PKAC-alpha (G10 to F351 residues) expressed in bacterial expression system assessed as residual binding level at 10 uM by Kinomescan method relative to control
[18] = target: cAMP-dependent protein kinase catalytic subunit PRKX (Homo sapiens) (UniProt P51817); experiment: Binding affinity to wild-type human partial length PRKX (M1 to F358 residues) expressed in bacterial expression system assessed as residual binding level at 10 uM by Kinomescan method relative to control
[19] = target: RAF proto-oncogene serine/threonine-protein kinase (Homo sapiens) (UniProt P04049); experiment: Binding affinity to wild-type human partial length RAF1 (I330 to T640 residues) expressed in bacterial expression system assessed as residual binding level at 10 uM by Kinomescan method relative to control
[20] = test system: Proto-oncogene tyrosine-protein kinase receptor Ret (Homo sapiens), P07949 [V804M]; experiment: Binding affinity to human partial length RET V804M mutant (E713 to D1014 residues) expressed in bacterial expression system assessed as residual binding level at 10 uM by Kinomescan method relative to control
[21] = target: Ribosomal protein S6 kinase alpha-3 (Homo sapiens) (UniProt P51812); experiment: Binding affinity to wild-type human partial length N-terminal RSK2 kinase domain 1 (M1 to D394 residues) expressed in mammalian expression system assessed as residual binding level at 10 uM by Kinomescan method relative to control
[22] = target: Serine/threonine-protein kinase SBK1 (Homo sapiens) (UniProt Q52WX2); experiment: Binding affinity to wild-type human partial length SBK1 (P23 to P348 residues) expressed in mammalian expression system assessed as residual binding level at 10 uM by Kinomescan method relative to control
[23] = target: Tyrosine-protein kinase Tec (Homo sapiens) (UniProt P42680); experiment: Binding affinity to wild-type human partial length TEC (L341 to D620 residues) expressed in bacterial expression system assessed as residual binding level at 10 uM by Kinomescan method relative to control
[24] = target: Testis-specific serine/threonine-protein kinase 1 (Homo sapiens) (UniProt Q9BXA7); experiment: Binding affinity to wild-type human full length TSSK1B (M1 to Q367 residues) expressed in bacterial expression system assessed as residual binding level at 10 uM by Kinomescan method relative to control

Sequence of Tyrosine-protein kinase Fes/Fps (Homo sapiens) (P07332 whole entry, the tested form may be a part): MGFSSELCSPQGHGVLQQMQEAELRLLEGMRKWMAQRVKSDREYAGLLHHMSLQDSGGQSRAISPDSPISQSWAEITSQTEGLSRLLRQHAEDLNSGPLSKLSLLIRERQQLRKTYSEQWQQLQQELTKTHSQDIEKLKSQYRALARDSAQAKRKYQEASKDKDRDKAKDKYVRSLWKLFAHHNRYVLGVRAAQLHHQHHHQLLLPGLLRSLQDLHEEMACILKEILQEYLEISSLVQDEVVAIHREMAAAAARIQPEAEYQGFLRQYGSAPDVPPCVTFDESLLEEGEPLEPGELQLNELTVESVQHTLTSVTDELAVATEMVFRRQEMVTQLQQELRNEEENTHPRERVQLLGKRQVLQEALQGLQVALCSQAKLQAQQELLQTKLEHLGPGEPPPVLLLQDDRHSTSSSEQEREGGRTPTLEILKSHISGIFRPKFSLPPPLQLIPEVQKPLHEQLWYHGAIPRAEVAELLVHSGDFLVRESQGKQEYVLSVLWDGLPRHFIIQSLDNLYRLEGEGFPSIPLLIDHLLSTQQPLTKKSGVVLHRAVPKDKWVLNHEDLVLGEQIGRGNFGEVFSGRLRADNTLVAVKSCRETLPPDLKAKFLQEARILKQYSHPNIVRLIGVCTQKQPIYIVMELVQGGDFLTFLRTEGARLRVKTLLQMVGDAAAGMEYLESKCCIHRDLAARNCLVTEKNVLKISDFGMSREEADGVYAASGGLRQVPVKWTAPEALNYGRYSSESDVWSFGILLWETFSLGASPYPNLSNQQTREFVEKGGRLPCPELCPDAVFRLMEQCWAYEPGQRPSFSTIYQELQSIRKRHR
Sequence of LIM domain kinase 1 (Homo sapiens) (P53667 whole entry, looked up, the tested form may be a part): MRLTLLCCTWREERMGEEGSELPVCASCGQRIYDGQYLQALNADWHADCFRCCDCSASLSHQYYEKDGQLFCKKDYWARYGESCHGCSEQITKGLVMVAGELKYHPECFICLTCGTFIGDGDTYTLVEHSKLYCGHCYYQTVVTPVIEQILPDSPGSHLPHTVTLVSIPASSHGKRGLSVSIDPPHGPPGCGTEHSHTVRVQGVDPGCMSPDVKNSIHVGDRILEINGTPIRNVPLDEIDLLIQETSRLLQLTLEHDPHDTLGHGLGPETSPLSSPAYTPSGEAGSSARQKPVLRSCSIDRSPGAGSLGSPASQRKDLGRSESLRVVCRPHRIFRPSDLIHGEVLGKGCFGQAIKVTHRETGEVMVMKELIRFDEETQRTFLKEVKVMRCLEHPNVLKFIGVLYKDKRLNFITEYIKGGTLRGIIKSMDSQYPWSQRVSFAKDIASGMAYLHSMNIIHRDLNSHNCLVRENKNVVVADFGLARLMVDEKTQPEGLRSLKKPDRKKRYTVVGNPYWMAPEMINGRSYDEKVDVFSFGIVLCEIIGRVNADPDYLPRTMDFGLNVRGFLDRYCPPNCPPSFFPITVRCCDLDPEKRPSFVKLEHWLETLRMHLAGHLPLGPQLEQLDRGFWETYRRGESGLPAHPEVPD
Sequence of Mast/stem cell growth factor receptor Kit (Homo sapiens), P10721 [V559D,T670I] (P10721 whole entry V559D/T670I, the tested form may be a part): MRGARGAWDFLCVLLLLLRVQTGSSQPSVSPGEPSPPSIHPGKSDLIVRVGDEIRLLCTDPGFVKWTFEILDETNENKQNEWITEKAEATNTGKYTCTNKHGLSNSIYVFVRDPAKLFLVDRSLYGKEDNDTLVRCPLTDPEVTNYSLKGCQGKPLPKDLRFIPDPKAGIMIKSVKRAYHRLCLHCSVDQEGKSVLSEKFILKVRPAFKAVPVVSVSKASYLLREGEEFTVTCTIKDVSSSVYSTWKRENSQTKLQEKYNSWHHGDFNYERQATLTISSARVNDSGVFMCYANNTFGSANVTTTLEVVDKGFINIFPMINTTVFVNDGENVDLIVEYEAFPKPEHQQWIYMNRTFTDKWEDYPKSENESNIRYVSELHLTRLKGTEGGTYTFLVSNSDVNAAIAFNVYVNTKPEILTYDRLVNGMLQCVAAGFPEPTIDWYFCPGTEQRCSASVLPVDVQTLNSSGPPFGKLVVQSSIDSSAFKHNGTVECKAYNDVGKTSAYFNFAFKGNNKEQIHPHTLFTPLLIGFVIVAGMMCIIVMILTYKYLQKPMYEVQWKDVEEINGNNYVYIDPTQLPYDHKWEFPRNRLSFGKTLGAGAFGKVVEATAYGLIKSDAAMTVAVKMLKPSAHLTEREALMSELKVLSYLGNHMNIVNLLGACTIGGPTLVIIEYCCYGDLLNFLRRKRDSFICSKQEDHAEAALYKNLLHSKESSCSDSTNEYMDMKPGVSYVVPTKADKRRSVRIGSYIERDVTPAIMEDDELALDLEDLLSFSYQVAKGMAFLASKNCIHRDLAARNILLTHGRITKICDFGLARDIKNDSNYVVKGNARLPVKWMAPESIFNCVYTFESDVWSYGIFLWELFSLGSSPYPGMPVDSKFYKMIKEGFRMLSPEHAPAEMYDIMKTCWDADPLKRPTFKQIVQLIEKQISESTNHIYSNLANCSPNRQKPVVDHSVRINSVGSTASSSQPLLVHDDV
Sequence of Ribosomal protein S6 kinase alpha-3 (Homo sapiens) (P51812 whole entry, the tested form may be a part): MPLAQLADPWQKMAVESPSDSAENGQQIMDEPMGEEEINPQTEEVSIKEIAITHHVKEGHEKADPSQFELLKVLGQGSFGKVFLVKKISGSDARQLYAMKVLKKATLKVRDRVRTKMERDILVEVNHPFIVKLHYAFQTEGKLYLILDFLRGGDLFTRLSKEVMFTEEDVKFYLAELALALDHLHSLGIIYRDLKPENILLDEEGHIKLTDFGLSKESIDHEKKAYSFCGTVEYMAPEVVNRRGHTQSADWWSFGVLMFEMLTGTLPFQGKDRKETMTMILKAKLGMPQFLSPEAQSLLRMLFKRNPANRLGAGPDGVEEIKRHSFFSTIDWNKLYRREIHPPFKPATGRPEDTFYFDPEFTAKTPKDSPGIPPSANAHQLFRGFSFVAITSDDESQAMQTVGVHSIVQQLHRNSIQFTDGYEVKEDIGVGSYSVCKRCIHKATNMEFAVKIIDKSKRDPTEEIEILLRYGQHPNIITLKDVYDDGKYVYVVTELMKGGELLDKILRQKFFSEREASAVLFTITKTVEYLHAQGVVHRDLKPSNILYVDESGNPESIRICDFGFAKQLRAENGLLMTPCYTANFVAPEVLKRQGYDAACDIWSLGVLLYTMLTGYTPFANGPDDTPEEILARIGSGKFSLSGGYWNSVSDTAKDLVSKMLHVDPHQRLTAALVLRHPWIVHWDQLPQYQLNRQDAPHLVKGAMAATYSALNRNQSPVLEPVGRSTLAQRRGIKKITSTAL
Sequence of cAMP-dependent protein kinase catalytic subunit PRKX (Homo sapiens) (P51817 whole entry, the tested form may be a part): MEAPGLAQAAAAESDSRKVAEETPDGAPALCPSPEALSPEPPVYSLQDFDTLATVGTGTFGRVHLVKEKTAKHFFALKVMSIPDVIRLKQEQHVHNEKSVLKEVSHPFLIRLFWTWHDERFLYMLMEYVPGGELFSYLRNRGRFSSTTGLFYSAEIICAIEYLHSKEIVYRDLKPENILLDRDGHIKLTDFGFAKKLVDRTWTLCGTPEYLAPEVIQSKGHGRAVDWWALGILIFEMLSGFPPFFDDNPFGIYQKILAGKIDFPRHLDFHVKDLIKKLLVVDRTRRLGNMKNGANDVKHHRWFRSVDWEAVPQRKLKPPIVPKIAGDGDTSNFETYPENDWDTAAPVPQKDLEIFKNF
Sequence of Casein kinase I isoform alpha (Homo sapiens) (P48729 2-337 limits assumed): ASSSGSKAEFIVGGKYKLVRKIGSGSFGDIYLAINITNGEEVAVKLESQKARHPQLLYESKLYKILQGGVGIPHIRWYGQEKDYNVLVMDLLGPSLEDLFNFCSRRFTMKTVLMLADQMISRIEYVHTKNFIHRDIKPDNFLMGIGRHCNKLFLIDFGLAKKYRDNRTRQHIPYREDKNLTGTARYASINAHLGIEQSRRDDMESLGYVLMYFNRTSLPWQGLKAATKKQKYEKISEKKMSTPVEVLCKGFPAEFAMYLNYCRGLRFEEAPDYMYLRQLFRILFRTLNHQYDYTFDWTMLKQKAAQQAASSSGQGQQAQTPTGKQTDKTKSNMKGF
Sequence of Serine/threonine-protein kinase/endoribonuclease IRE1 (Homo sapiens) (O75460 19-977 limits assumed): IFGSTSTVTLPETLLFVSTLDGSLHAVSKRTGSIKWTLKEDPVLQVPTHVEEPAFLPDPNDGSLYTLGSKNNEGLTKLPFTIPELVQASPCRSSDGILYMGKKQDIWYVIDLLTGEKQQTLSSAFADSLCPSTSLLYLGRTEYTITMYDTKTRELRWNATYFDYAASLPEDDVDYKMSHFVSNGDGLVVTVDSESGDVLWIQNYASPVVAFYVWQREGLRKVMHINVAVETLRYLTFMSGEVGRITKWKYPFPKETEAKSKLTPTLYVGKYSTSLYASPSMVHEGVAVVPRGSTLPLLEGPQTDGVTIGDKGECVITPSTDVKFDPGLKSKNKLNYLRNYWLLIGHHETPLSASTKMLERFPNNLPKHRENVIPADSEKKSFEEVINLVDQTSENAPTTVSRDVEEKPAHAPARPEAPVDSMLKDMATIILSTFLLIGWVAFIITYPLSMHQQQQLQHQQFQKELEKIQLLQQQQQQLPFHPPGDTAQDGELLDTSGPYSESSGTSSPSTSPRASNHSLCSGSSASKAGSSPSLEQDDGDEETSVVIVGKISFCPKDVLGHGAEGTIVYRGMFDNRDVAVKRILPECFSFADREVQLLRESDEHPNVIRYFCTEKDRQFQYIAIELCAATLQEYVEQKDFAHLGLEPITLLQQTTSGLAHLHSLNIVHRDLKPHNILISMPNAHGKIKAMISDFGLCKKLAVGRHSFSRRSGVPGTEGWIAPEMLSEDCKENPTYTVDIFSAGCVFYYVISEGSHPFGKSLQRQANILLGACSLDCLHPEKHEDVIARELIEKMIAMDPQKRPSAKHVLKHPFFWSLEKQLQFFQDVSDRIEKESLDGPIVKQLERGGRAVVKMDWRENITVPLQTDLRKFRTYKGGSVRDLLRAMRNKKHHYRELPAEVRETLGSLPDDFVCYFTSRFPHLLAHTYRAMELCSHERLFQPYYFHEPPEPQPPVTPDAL

O=C(Nc1cc(-c2cn(CCNc3c4c(nc5ccccc35)CCCC4)nn2)ccn1)Nc1cccc2c1C1CCCCN1C2=O (racemic)
Activity [1]: 2.9%
Activity [2]: 1.6%
Activity [3]: 100%
Activity [4]: 99%
Activity [5]: 5.3%
Activity [6]: 87%
Activity [7]: 92%
Activity [8]: 3.4%
Activity [9]: 100%
Activity [10]: 100%
Activity [11]: 62%
Activity [12]: 100%
Activity [13]: 5.7%
Activity [14]: 8.9%
Activity [15]: 73%
Activity [16]: 16%
Activity [17]: 100%
Activity [18]: 15%
Activity [19]: 97%
Activity [20]: 13%
Activity [21]: 1.7%
Activity [22]: 30%
Activity [23]: 93%
Activity [24]: 47%

Source: ChEMBL document CHEMBL4390652, “Design, biological evaluation and X-ray crystallography of nanomolar multifunctional ligands targeting simultaneously acetylcholinesterase and glycogen synthase kinase-3” (Eur J Med Chem, 2019)
